# Reference: patent publication US20220193209A1, “COMPOSITIONS AND METHODS FOR REACTIVATING LATENT IMMUNODEFICIENCY VIRUS AND/OR TREATING IMMUNODEFICIENCY VIRUS INFECTION” (The J. David Gladstone institutes, a testamentary trust …, priority 2019, published 2022)
# Legend:
# [1] = test system: latent HIVNL4-3 Luciferase reporter virus in primary CD4+ T cells; assay: Luciferase reporter HIV reactivation in primary CD4+ T cells; format: cell-based, HIV-1; details: 6 days after infection, increasing concentrations
# Method: For reactivation of latent HIV-1 provirus, cells were counted and collected as pellets by centrifugation at 1500 rpm for 10 min. Cells were then plated in 96-well U-bottom plates at 1×10^6 per 200 μl in the presence of 30 μM Raltegravir (Santa Cruz Biotechnology) and the indicated activator. Cells were harvested 48 h after stimulation, washed one time with PBS, and lysed in 60 μl of Passive Lysis Buffer (Promega). After 15 min of lysis, the luciferase activity in cell extracts was quantified with a Perkin Elmer EnSpire 2300 Multimode plate reader after mixing 20 μl of lysate with 100 μl of substrate (Luciferase Assay System-Promega). Relative light units (RLU) were normalized to protein content determined by Bradford assay (BioRad). Data represent average (±SD) of three technical replicates per donor. Cell viability was measured with CellTiter-Blue Cell Viability Assay (Promega).
# HIV reactivation was measured by luciferase activity and cell viability by flow cytometry.
# [2] = test system: latent HIV in CD4+ T cells from HIV-infected patients; assay: Cell-associated HIV RNA by ddPCR in CD4+ T cells of HIV-infected patients on antiretroviral therapy, ex vivo; format: cell-based; details: 100 and 1000 nM, 3 days, five patients
# Method: Cells were treated ex vivo with two concentrations of AS1842856 (100 and 1000 nM), prostratin (250 nM) or combinations thereof for 3 days, and HIV RNA induction was measured by digital droplet PCR (ddPCR).
# [3] = test system: HIV LTR; assay: Chromatin immunoprecipitation (ChIP) at the HIV LTR in J-Lat cells; format: cell-based, HIV-1
# Method: J-Lat A2 and A72 cells were treated with TNFα (10 ng/ml) for 18 h. Cells were fixed with 1% formaldehyde (v/v) in fixation buffer (1 mM EDTA, 0.5 mM EGTA, 50 mM Hepes, pH 8.0, 100 mM NaCl), and fixation was stopped after 10 min by addition of glycine to 125 mM. The cell membrane was lysed for 15 min on ice (5 mM Pipes, pH 8.0, 85 mM KCl, 0.5% NP40, protease inhibitors). After washing with nuclear swell buffer (25 mM HEPES, pH 7.5, 4 mM KCl, 1 Mm DTT, 0.5% NP-40, 0.5 mM PMSF) and micrococcal nuclease (MNase) digestion buffer (20 mM Tris pH 7.5, 2.5 mM CaCl2), 5 mM NaCl, 1 mM DTT, 0.5% NP-40), the pellet was resuspended in MNase buffer (15 mM Tris-HCl, pH 7.5, 5 mM MgCl2, 1 mM CaCl2), and 25 mM NaCl). Subsequently, samples were incubated with MNase (New England Biolabs) for 10 min at RT. The reaction was quenched with 0.5 M EDTA and incubated on ice for 5 min. Cells were lysed (1% SDS, 10 mM EDTA, 50 mM Tris-HCl, pH 8.1, protease inhibitors), and chromatin DNA was sheared to 200-1000-bp average size through sonication (Ultrasonic Processor CP-130, Cole Parmer). Cellular debris was pelleted, and the supernatant was recovered. Protein A/G Sepharose beads were blocked with single-stranded salmon sperm DNA and BSA, washed and resuspended in immunoprecipitation buffer. Blocked protein A/G Sepharose beads were added to the digested chromatin fractions and rotated at 4° C. for 2 h to preclear chromatin. Lysates were incubated overnight at 4° C. with 5 μg of FOXO1, RelA, histone H4, H4K20me1, H4K20me2, H4K20me3 antibodies, or IgG control. After incubation with protein A/G agarose beads for 2 h and washing three times with low salt buffer (0.1% SDS, 1% Triton X-100, 2 mM EDTA, 20 mM Tris-HCl, pH 8.1, 150 mM NaCl), one time with high salt buffer (0.1% SDS, 1% Triton X-100, 2 mM EDTA, 20 mM Tris-HCl, pH 8.1, 500 mM NaCl) and twice with TE-buffer (1 mM EDTA, 10 mM Tris-HCl, pH 8.1), chromatin was eluted and recovered with Agencourt AMPure XP beads (Beckman Coulter). Bound chromatin and input DNA were treated with RNase H (New England Biolabs) and Proteinase K (Sigma-Aldrich) at 37° C. for 30 min. Immunoprecipitated chromatin was quantified by real-time PCR using the Maxima SYBR Green qPCR Master Mix (Thermo Scientific) and the ABI 7700 Sequence Detection System (Applied Biosystems). The SDS 2.4 software (Applied Biosystems) was used for analysis. The specificity of each PCR reaction was confirmed by melting curve analysis using the Dissociation Curve software (Applied Biosystems). All chromatin immunoprecipitations and qPCRs were repeated at least three times, and representative results were shown.
# Because ATF4 can be recruited to the HIV LTR (Jiang, G. et al. Downloaded from. MBio 8, 1518-1534 (2018)) and the related human T-cell leukemia virus type 1 (HTLV-1) Reddy, T. et al. Oncogene 14, 2785-2792 (1997)), chromatin immunoprecipitation (ChIP) experiments were performed to test whether ATF4 binds the HIV LTR in response to FOXO1 inhibition. While low levels of ATF4 bound HIV LTR chromatin in untreated J-Lat cells, its recruitment was 3-fold enriched after AS1842856 treatment (FIG. 9, Panel A). […] The nuclear factor of activated T cells (NFAT) can occupy the NF-κB binding sites in the HIV LTR, and is activated through calcium mobilization after T cell activation rather than protein kinase C activation as for NF-κB. […]
# [4] = test system: K562 cells; assay: Cell viability of HIVGKO-infected K562 cells; format: cell-based; details: K562, increasing concentrations
# Method: Briefly, K562 cells were treated with increasing concentrations of the FOXO1 inhibitor AS1842856 just after HIVGKO infection. After 3-4 days, the percentage of latent cells and productive cells were quantified by FACS. In left panel, amount of productive or latent cells relative to the total infection rate (bars) and cell viability (dots). In the right panel, ratios of productive versus latent populations upon increasing concentrations of AS1842856 treatments. Data are represented as mean f SD of triplicate values, representative of three independent experiments. FIG. 1, Panel B depicts FOXO1, FOXO3 and FOXO4 CETSA-melting curve shifts upon the presence or absence of AS1842856 1000 nM in K562 cells. Band intensities obtained from western blot analysis were related to the highest western blot signal which has been set to 100%. Relative FOXO-band intensities were plotted against corresponding incubation temperatures and a nonlinear least-squares regression fit was applied. Data represent the mean±SD of three individual experiments. FIG. 1, Panel C depicts the efficiency of FOXO1, FOXO3 and FOXO4 knockdowns with two different sgRNAs checked by western blot. Cells transduced with NC (negative control) sgRNA lentiviruses were used as a control. […]
# [5] = test system: primary CD4+ T cells
# Method: Cell viability was measured with CellTiter-Blue Cell Viability Assay (Promega).
# Histogram plot of percent live cells for each drug treatment relative to the control are shown (right side —right panel). Data are represented by mean±SD of four different donors.
structure (smiles),measurement,setting,value
"CCn1cc(C(=O)O)c(=O)c2c(N)c(F)c(NC3CCCCC3)cc21 [AS1842856, 5-amino-7-(cyclohexylamino)-1-ethyl-6-fluoro-4-oxo-1,4-dihydro-quinoline-3-carboxylic acid]",luciferase expression (HIV reactivation),[1],reactivated luciferase expression
same,HIV RNA induction,[2],two-fold
same,NFAT at the HIV LTR,[3],markedly enriched
same,RNA polymerase II recruitment to the HIV promoter,[3],marked increase
same,RelA recruitment to the HIV LTR,[3],not recruited
same,ATF4 recruitment to HIV LTR chromatin,[3]; 1000 nM vs untreated,3 fold
same,viability,[4],no significant changes
same,primary T-cell viability,[5],No changes
